The species entered for assay [1] is Cavia porcellus. Description: Concentration-Relaxation Studies was exerted on Guinea Pig Tracheal Rings Precontracted by Carbachol by the compound in presence of Adenosine antagonist CSC ( E-4 M). The class given is functional, organism-based. Particulars: Trachea.
The species entered for assay [2] is Cavia porcellus. Put plainly: Concentration-Relaxation Studies was exerted on Guinea Pig Tracheal Rings Precontracted by Carbachol by the compound in presence of Adenosine antagonist 8-PT ( E-4 M). The class given is functional, organism-based. Particulars: Trachea.
Assay [3] is filed under the species Cavia porcellus. Put plainly: Concentration-Relaxation Studies was exerted on Guinea Pig Tracheal Rings Precontracted by Carbachol by the compound in presence of Adenosine antagonist DMPX ( E-4 M). The class given is functional, organism-based. To be noted: Trachea.
The species entered for assay [4] is Cavia porcellus. Put plainly: Concentration-Relaxation Studies was exerted on Guinea Pig Tracheal Rings Precontracted by Carbachol by the compound in presence of Adenosine antagonist Alloxazine ( E-4 M). Particulars: Trachea. The class given is functional, organism-based.
In assay [5] the target is T1, Adenosine receptor A2b (Homo sapiens, UniProt P29275).
T1 sequence (P29275 whole entry): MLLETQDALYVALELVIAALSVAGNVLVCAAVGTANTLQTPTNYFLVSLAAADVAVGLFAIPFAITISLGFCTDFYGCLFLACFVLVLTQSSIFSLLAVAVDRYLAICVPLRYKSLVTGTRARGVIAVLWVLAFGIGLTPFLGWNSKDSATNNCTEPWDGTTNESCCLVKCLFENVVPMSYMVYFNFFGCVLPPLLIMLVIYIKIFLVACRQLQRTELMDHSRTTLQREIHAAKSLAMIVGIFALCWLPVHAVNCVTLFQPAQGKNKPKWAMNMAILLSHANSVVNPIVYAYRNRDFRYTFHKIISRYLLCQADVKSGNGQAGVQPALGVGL
Description: Potency against cAMP formation in CHO cells expressing recombinant human A2B receptor. It is filed as functional, cell-based. (Cyclic AMP is a second messenger, typically raised through Gs and lowered through Gi signalling.)

The target in assay [6] is T1, Adenosine receptor A2b. Description: Inhibition of [3H]DPCPX binding to human adenosine A2B receptor expressed in HEK293 cells. It is filed as cell-based.
A further assay has as its target T2, Adenosine receptor A1 (Homo sapiens, UniProt P30542).
T2 sequence (P30542 whole entry): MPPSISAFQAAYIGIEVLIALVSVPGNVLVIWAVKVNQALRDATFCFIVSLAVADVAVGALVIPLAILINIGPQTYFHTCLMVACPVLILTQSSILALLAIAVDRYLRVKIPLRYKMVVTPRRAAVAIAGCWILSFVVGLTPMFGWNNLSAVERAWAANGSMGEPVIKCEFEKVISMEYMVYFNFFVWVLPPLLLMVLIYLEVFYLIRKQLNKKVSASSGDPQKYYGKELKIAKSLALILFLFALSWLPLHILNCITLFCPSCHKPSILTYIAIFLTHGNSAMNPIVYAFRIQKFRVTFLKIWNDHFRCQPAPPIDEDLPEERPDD
Put plainly: Inhibition of [3H]DPCPX binding to human adenosine A1 receptor expressed in CHO cells. It is filed as cell-based.

The target of a further assay is T3, Adenosine receptor A3 (Homo sapiens, UniProt P0DMS8).
T3 sequence (P0DMS8 whole entry): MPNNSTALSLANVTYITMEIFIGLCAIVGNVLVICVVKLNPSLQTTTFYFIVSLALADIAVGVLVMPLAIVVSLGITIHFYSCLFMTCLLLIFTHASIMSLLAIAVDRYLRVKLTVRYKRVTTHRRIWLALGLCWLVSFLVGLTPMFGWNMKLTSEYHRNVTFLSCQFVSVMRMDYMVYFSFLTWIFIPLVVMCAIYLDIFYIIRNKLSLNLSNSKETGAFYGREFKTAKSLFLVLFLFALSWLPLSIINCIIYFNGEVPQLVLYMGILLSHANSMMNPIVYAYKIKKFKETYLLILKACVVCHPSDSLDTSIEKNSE
Description: Inhibition of [3H]NECA binding to human adenosine A3 receptor expressed in HeLa cells. It is filed as cell-based.

For assay [7], the target named is T4, Adenosine receptor A2a (Homo sapiens, UniProt P29274).
Description: Potency against cAMP formation in CHO cells expressing recombinant human A2A receptor
The target of assay [8] is Adenosine receptor A2a (Rattus norvegicus, UniProt P30543).
Description: Efficacy against phenylephrine precontracted tissue relaxation in rat aorta
Assay [9] concerns the target T4, Adenosine receptor A2a. Put plainly: biochemical.
Description: Inhibition of [3H]ZM-241385 binding to human adenosine A2A receptor expressed in HeLa cells
Assay [10] has as its target Adenosine receptor A2b (Cavia porcellus). Put plainly: Relative efficacy against phenylephrine precontracted tissue relaxation in Guinea pig aorta.
For assay [11], the system named is Adenosine receptor A2b (Cavia porcellus). Description: Relative efficacy against phenylephrine precontracted tissue relaxation in Guinea pig aorta compared to NECA.

pEC50, pKi: −log10 of the molar value.

T4 sequence (P29274 whole entry): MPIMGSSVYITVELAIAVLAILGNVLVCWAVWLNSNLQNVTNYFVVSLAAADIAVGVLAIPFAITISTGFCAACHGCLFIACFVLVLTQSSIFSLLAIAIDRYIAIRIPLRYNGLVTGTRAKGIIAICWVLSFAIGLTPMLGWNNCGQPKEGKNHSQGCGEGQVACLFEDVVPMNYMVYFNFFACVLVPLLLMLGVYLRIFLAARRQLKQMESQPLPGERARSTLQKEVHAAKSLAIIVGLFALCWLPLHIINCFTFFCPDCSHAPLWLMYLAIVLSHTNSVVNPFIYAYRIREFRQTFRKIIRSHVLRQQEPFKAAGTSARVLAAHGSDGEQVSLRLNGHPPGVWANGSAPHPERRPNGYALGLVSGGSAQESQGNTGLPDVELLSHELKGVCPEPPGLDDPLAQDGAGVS
Chain of Adenosine receptor A2a (Rattus norvegicus, UniProt P30543) (P30543 whole entry): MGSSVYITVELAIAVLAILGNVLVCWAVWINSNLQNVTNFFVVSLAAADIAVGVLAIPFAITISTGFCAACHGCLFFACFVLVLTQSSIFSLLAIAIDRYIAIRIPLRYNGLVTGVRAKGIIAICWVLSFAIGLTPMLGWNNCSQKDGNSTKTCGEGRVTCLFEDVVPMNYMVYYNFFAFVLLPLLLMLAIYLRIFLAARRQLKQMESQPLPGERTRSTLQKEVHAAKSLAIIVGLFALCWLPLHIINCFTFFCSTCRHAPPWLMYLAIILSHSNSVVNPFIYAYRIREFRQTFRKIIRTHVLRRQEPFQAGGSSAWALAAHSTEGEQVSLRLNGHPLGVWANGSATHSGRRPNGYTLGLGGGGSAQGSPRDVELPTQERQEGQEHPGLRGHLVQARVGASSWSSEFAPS

Consider `Nc1ncnc2c1ncn2[C@@H]1O[C@H](CO)[C@@H](O)[C@H]1O` [ADENOSINE], for which the pEC50 in the assay listed under Cavia porcellus [1] is 3.24; in the assay listed under Cavia porcellus [2], 3.34; in the assay filed under Cavia porcellus [3], 3.47; in the assay filed under Cavia porcellus [4], 3.26.
On to `CCn1nnc([C@H]2O[C@@H](n3cnc4c(N)nc(N[C@H](CO)Cc5ccc(Br)cc5)nc43)[C@H](O)[C@@H]2O)n1`, for which the pEC50 was 6.25 on Adenosine receptor A2b [5], 8.80 on Adenosine receptor A2a [7], 8.17 on Adenosine receptor A2a [8] and 5.89 in assay [10]. The pKi is 5.65 on Adenosine receptor A2b [6], 6.51 at Adenosine receptor A1, 7.08 on Adenosine receptor A3 and 8.30 at Adenosine receptor A2a [9]. This compound came in with an Emax in assay [11] of 125%.
Regarding `CCn1nnc([C@H]2O[C@@H](n3cnc4c(N)nc(N[C@H](CO)Cc5ccc(Cl)cc5)nc43)[C@H](O)[C@@H]2O)n1`, the pEC50 at Adenosine receptor A2b [5] was 5.33; in the assay listed under Cavia porcellus [1] it was 4.77; in the assay listed under Cavia porcellus [4], 4.42; on Adenosine receptor A2a [7], 7.01. For the same compound, the pKi at Adenosine receptor A2b [6] was 5.57; at Adenosine receptor A1, 6.17; on Adenosine receptor A3, 6.54; on Adenosine receptor A2a [9], 6.57.
For `CCn1nnc([C@H]2O[C@@H](n3cnc4c(N)nc(N[C@H](CO)Cc5ccc(OC)cc5)nc43)[C@H](O)[C@@H]2O)n1`, the pEC50 is 6.17 at Adenosine receptor A2b [5]; 4.66 in the assay listed under Cavia porcellus [1]; 4.44 in the assay listed under Cavia porcellus [3]; 4.44 in the assay listed under Cavia porcellus [4]; 8.85 on Adenosine receptor A2a [7]. The pKi at Adenosine receptor A2b [6] is 5.93; on Adenosine receptor A1, less than 5.00; at Adenosine receptor A3, 6.89; at Adenosine receptor A2a [9], 7.42.
For the compound `CCNC(=O)[C@H]1O[C@@H](n2cnc3c(N)ncnc32)[C@H](O)[C@@H]1O` [NECA], the pEC50 was 4.08 in the assay filed under Cavia porcellus [1], 4.19 in the assay listed under Cavia porcellus [2], 4.11 in the assay listed under Cavia porcellus [3] and 4.06 in the assay listed under Cavia porcellus [4].
For the compound `CCn1nnc([C@H]2O[C@@H](n3cnc4c(N)nc(N[C@H](CO)Cc5ccc([N+](=O)[O-])cc5)nc43)[C@H](O)[C@@H]2O)n1`, the pEC50 at Adenosine receptor A2b [5] was 5.92; on Adenosine receptor A2a [7], 8.51. The pKi at Adenosine receptor A2b [6] is 5.44; at Adenosine receptor A1 it was less than 5.00; at Adenosine receptor A3, 6.40; on Adenosine receptor A2a [9], 7.32.
Consider `CCn1nnc([C@H]2O[C@@H](n3cnc4c(N)nc(N[C@H](CO)Cc5ccccc5)nc43)[C@H](O)[C@@H]2O)n1` [GW-328267], for which the pEC50 was 4.29 in the assay listed under Cavia porcellus [1]; 4.19 in the assay listed under Cavia porcellus [2]; 4.34 in the assay filed under Cavia porcellus [3]; 4.06 in the assay filed under Cavia porcellus [4]; 8.06 at Adenosine receptor A2a [7]; 8.00 at Adenosine receptor A2a [8]. The pKi was 6.43 on Adenosine receptor A1 and 7.34 at Adenosine receptor A2a [9].
On to `CCn1nnc([C@H]2O[C@@H](n3cnc4c(N)nc(N[C@H](CO)Cc5ccc(O)cc5)nc43)[C@H](O)[C@@H]2O)n1`, for which the values for the pKi on Adenosine receptor A3 and on Adenosine receptor A2a [9] were 6.85 and 8.30, respectively. For the same compound, the pEC50 was 8.10 at Adenosine receptor A2a [7] and 8.54 on Adenosine receptor A2a [8].
Regarding `CCn1nnc([C@H]2O[C@@H](n3cnc4c(N)nc(N[C@H](C)Cc5ccc(OC)cc5)nc43)[C@H](O)[C@@H]2O)n1`, the pEC50 was 4.59 in the assay listed under Cavia porcellus [1]; 4.64 in the assay listed under Cavia porcellus [3]; 4.82 in the assay listed under Cavia porcellus [4]; 8.52 on Adenosine receptor A2a [7]; 8.40 at Adenosine receptor A2a [8]. In addition, the results for the pKi at Adenosine receptor A1, on Adenosine receptor A3 and on Adenosine receptor A2a [9] were 6.45, 7.00 and 9.00, respectively.

As usually defined, the pEC50 is the EC50 on a negative log10 scale, so that one unit is a factor of ten. A word on the pKi: it is the Ki on a negative log10 scale, so that one unit is a factor of ten. The term Emax denotes the maximal effect, on the per cent scale that the assay sets.

Values taken from ChEMBL document CHEMBL1137202, “Synthesis and biological activity of new potential agonists for the human adenosine A2A receptor” (J Med Chem, 2004).
